The source made the active and inactive calls. No cut-off for these calls is given here.

Data set [1] deals with MEF. The data set is described as follows: Induction of Oct3/4 gene expression in C57BL/6 MEF at 100 nM after 24 hrs by quantitative RT-PCR analysis relative to control. The format is functional. The conditions noted are these: for Activity: Mus musculus.
Data set [2] deals with MEF. Kind of data set: Upregulation of Nanog gene expression in C57BL/6 MEF at 100 nM after 24 hrs by quantitative RT-PCR analysis relative to control. The format is functional. The conditions noted are these: for Activity: Mus musculus.
Data set [3] relates to MEF. The data set is described as follows: Upregulation of Sox2 gene expression in C57BL/6 MEF at 100 nM after 24 hrs by quantitative RT-PCR analysis relative to control. The conditions noted are these: Mus musculus. Format: functional, cell-based.
The test system of data set [4] is MEF. Kind of data set: Cytotoxicity against C57BL/6 MEF at 100 nM by WST-8 assay. The conditions noted are these: mouse, 0.1 µM. Format: cell-based.
In data set [5] the test system is MEF. The data set is described as follows: Upregulation of Klf4 gene expression in C57BL/6 MEF at 100 nM after 24 hrs by quantitative RT-PCR analysis relative to control. The format is functional. The conditions noted are these: for Activity: Mus musculus.
Data set [6] has as its system MEF. Kind of data set: Upregulation of c-Myc gene expression in C57BL/6 MEF at 100 nM after 24 hrs by quantitative RT-PCR analysis relative to control. The conditions noted are these: for Activity: Mus musculus. Format: functional, Mus musculus.
Data set [7] in a line: Inhibition of HDAC.

Turning to `O=C(CCCCCCC(=O)Nc1ccccc1)NO`, the outcome in data set [1] and in data set [2] was inactive. Besides, in data set [3], the outcome was Active.
Consider `CN(C)CCCNC(=O)CCNC(=O)c1cc(NC(=O)c2cc(NC(=O)c3cc(NC(=O)c4cc(NC(=O)CCCNC(=O)c5cc(NC(=O)c6cc(NC(=O)c7cc(NC(=O)c8nc(NC(=O)CCNC(=O)CCNC(=O)c9ccc(NC(=O)CCCCCCC(=O)NO)cc9)cn8C)cn7C)cn6C)cn5C)cn4C)cn3C)cn2C)cn1C`, for which the Activity result in data set [4] is listed as “Non-toxic”. Besides, the “fold change (FC)” value in data set [1] is given as 2; in data set [2], 2; in data set [6], 1.8. Further, the outcome in data set [3] and in data set [5] was Active. For the same compound, the HDAC inhibition activity entry in data set [7] is “Active”.
`CN(C)CCCNC(=O)c1cc(NC(=O)c2cc(NC(=O)c3cc(NC(=O)c4cc(NC(=O)CCCNC(=O)c5cc(NC(=O)c6cc(NC(=O)c7cc(NC(=O)c8nc(NC(=O)CCNC(=O)CCNC(=O)CCNC(=O)CCNC(=O)c9ccc(NC(=O)CCCCCCC(=O)NO)cc9)cn8C)cn7C)cn6C)cn5C)cn4C)cn3C)cn2C)cn1C`: in data set [4], the Activity entry is given as “Non-toxic”. In addition, the “fold change (FC)” value was found to be 3.6 in data set [1], 2 in data set [2], 1.5 in data set [5] and 1.5 in data set [6]. In data set [3], the result was Active. For the same compound, the HDAC inhibition activity result in data set [7] was “Active”.
As for `CN(C)CCCNC(=O)c1cc(NC(=O)c2cc(NC(=O)c3cc(NC(=O)c4cc(NC(=O)CCCNC(=O)c5cc(NC(=O)c6cc(NC(=O)c7cc(NC(=O)c8nc(NC(=O)CCNC(=O)c9ccc(NC(=O)CCCCCCC(=O)NO)cc9)cn8C)cn7C)cn6C)cn5C)cn4C)cn3C)cn2C)cn1C`, the Activity entry in data set [4] is reported as “Non-toxic”. Moreover, the “fold change (FC)” value came to 2 in data set [1], 2 in data set [2] and 1.5 in data set [5]. In addition, the result in data set [3] was Active. In data set [6], the outcome was inactive. Besides, the HDAC inhibition activity result in data set [7] is “Active”.
With `CONC(=O)CCCCCCC(=O)Nc1ccc(C(=O)NCCC(=O)NCCC(=O)Nc2cn(C)c(C(=O)Nc3cc(C(=O)Nc4cc(C(=O)Nc5cc(C(=O)NCCCC(=O)Nc6cc(C(=O)Nc7cc(C(=O)Nc8cc(C(=O)Nc9cc(C(=O)NCCCN(C)C)n(C)c9)n(C)c8)n(C)c7)n(C)c6)n(C)c5)n(C)c4)n(C)c3)n2)cc1`, the result in data set [1] and in data set [2] was inactive. The outcome in data set [3] was Active.
Take `CN(C)CCCNC(=O)c1cc(NC(=O)c2cc(NC(=O)c3cc(NC(=O)c4cc(NC(=O)CCCNC(=O)c5cc(NC(=O)c6cc(NC(=O)c7cc(NC(=O)c8nc(NC(=O)CCNC(=O)CCNC(=O)c9ccc(NC(=O)CCCCCCC(=O)NO)cc9)cn8C)cn7C)cn6C)cn5C)cn4C)cn3C)cn2C)cn1C`: the Activity result in data set [4] is “Non-toxic”. Further, the “fold change (FC)” value in data set [1] was 3.1; in data set [2], 2. Further, the outcome in data set [3] was Active. The outcome in data set [5] and in data set [6] was inactive. In addition, in data set [7], the HDAC inhibition activity result is “Active”.
In the case of `CN(C)CCCNC(=O)c1cc(NC(=O)c2cc(NC(=O)c3cc(NC(=O)c4cc(NC(=O)CCCNC(=O)c5cc(NC(=O)c6cc(NC(=O)c7cc(NC(=O)c8nc(NC(=O)CCNC(=O)CCNC(=O)CCNC(=O)c9ccc(NC(=O)CCCCCCC(=O)NO)cc9)cn8C)cn7C)cn6C)cn5C)cn4C)cn3C)cn2C)cn1C`, the Activity entry in data set [4] was “Non-toxic”. The “fold change (FC)” value in data set [1] amounted to 4.5; in data set [5], 1.5; in data set [6] it was 1.5. Further, the outcome in data set [2] and in data set [3] was Active. Besides, in data set [7], the HDAC inhibition activity result is “Active”.
As for `CC(=O)Nc1cn(C)c(C(=O)Nc2cc(C(=O)Nc3cc(C(=O)Nc4cc(C(=O)NCCCC(=O)Nc5cc(C(=O)Nc6cc(C(=O)Nc7cc(C(=O)Nc8cc(C(=O)NCCCN(C)CCCNC(=O)c9ccc(NC(=O)CCCCCCC(=O)NO)cc9)n(C)c8)n(C)c7)n(C)c6)n(C)c5)n(C)c4)n(C)c3)n(C)c2)n1`, the Activity result in data set [4] is recorded as “Non-toxic”. Further, the “fold change (FC)” value in data set [1] is on record as 2; in data set [2] it was 2; in data set [5], 2.2; in data set [6], 1.5. Also, the result in data set [3] was Active. Further, in data set [7], the HDAC inhibition activity result is “Active”.

The values are drawn from ChEMBL document CHEMBL2157985, “Development of programmable small DNA-binding molecules with epigenetic activity for induction of core pluripotency genes” (Bioorg Med Chem, 2012).
